Patent publication US11407736B2 (priority 2019, dated 2022)
Where two headings read alike, the source gives them in different places.

Experiments:
U937 cells = experiment: U937 cell necroptosis assay (TNFa + zVAD, CellTiter-Glo); format: cell-based, human; settings: TNFa + zVAD, read-out: U937 Zvad TNF CTG Recovery, U937, TNFa + zVAD (IC50)
How it was run: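 Necroptosis was induced with TNFa at 2 ng/mL final for 18 h at 37 °C, following 1 h compound pre-incubation in the presence of zVAD-fmk (60 uM for U937 plating medium, 40 uM for L929 medium). Luminescent CellTiter-Glo signal gave relative cell survival.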

L929 cells = experiment: L929 cell necroptosis assay (TNFa + zVAD, CellTiter-Glo); format: cell-based, murine; settings: TNFa + zVAD, read-out: L929-CTG-recovery, L929, TNFa + zVAD (IC50)
How it was run: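 Necroptosis was read as CellTiter-Glo luminescence 18 hours after TNFa stimulation at 37° C, 5% CO2. Prior to that, L929 cells (10K/well, plated 18 h) received fresh medium with 40 uM zVAD-fmk plus 4-fold serially diluted compound.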

RIPK1 = RIPK1 (Homo sapiens (Human), UniProt Q13546); experiment: RIPK1 ADP-Glo biochemical kinase assay
Chain of RIPK1 (Q13546 whole entry, species assumed): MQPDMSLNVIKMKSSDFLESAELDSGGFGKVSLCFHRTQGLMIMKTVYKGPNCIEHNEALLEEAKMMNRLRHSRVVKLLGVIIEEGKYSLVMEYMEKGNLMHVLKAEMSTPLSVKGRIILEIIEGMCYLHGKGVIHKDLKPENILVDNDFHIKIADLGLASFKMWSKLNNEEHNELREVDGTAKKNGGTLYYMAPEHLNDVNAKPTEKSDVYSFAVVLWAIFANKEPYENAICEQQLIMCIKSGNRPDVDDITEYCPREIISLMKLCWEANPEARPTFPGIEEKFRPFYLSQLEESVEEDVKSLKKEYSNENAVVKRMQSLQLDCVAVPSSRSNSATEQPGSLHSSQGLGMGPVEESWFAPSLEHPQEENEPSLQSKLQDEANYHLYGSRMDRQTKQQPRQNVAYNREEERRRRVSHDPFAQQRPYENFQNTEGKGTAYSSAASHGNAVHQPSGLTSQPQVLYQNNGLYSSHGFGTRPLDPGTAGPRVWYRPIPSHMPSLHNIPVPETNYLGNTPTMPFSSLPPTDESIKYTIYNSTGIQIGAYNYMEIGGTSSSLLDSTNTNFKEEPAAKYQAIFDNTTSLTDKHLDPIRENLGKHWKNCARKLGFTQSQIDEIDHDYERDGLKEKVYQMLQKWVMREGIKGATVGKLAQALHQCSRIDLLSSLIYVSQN
Procedure: The final reaction volume was 5.0ul.
Adding 5 μl of ADP-Glo™ terminated the reaction.

[1] = Homo sapiens, U-937, U937 cells
[2] = read-out: RIPK1 ADP-Glo Kinase (IC50)

SMILES	IC50 (U937 cells; [1])	IC50 (L929 cells; Mus musculus, L929, L929 cells)	IC50 (RIPK1; [2])	IC50 (U937 cells; U937 cells)	IC50 (L929 cells; L929 cells)	IC50 (RIPK1)
CCN1C(=O)[C@@H](NC(=O)c2n[nH]c(Cc3ccccc3)n2)COc2ccc(C#CC(C)(C)O)cc21 [Compound I-91, (S)-5-benzyl-N-(5-ethyl-7-(3-hydroxy-3-methylbut-1-yn-1-yl)-4-oxo-2,3,4,5-tetrahydrobenzo[b][1,4]oxazepin-3-yl)-1H-1,2,4-triazole-3-carboxamide]	19.8 nM	3.7 nM	388 nM			
CCN1C(=O)[C@@H](NC(=O)c2n[nH]c(Cc3cccc(F)c3)n2)COc2ccc(C#CC(C)(C)O)cc21 [Compound I-92, (S)—N-(5-ethyl-7-(3-hydroxy-3-methylbut-1-yn-1-yl)-4-oxo-2,3,4,5-tetrahydrobenzo[b][1,4]oxazepin-3-yl)-5-(3-fluorobenzyl)-1H-1,2,4-triazole-3-carboxamide]	4840 nM	430 nM	932 nM			
C=C(C)C#Cc1ccc2c(c1)NC(=O)[C@@H](NC(=O)c1n[nH]c(Cc3ccccc3)n1)CO2 [Compound I-93, (S)-5-benzyl-N-(7-(3-methylbut-3-en-1-yn-1-yl)-4-oxo-2,3,4,5-tetrahydrobenzo[b][1,4]oxazepin-3-yl)-1H-1,2,4-triazole-3-carboxamide]	3240 nM	921 nM	64.1 nM			
CN1C(=O)[C@@H](NC(=O)c2n[nH]c(Cc3ccccc3)n2)COc2ccc(C#CCN3CCCC3)cc21 [Compound I-95, (S)-5-benzyl-N-(5-methyl-4-oxo-7-(3-(pyrrolidin-1-yl)prop-1-yn-1-yl)-2,3,4,5-tetrahydrobenzo[b][1,4]oxazepin-3-yl)-1H-1,2,4-triazole-3-carboxamide]	1.4 nM	0.5 nM	27.1 nM			
CN1C(=O)[C@@H](NC(=O)c2n[nH]c(Cc3ccccc3)n2)COc2ccc(C#CCN3CCOCC3)cc21 [Compound I-96, (S)-5-benzyl-N-(5-methyl-7-(3-morpholinoprop-1-yn-1-yl)-4-oxo-2,3,4,5-tetrahydrobenzo[b][1,4]oxazepin-3-yl)-1H-1,2,4-triazole-3-carboxamide]	3.1 nM	0.8 nM	31.7 nM			
CN1C(=O)[C@@H](NC(=O)c2n[nH]c(Cc3ccccc3)n2)COc2ccc(C#C[Si](C)(C)C)cc21 [Compound I-97, (S)-5-benzyl-N-(5-methyl-4-oxo-7-((trimethylsilyl)ethynyl)-2,3,4,5-drobenzo[b][1,4]oxazepin-3-yl)-1H-1,2,4-triazole-3-carboxamide]			85.8 nM	1.7 nM	0.9 nM	
CN1C(=O)[C@@H](NC(=O)c2cc(Oc3ccccc3)ccn2)COc2ccc(C#CC3(O)CCCC3)cc21 [Compound I-98, (S)—N-(7-((1-hydroxycyclopentyl)ethynyl)-5-methyl-4-oxo-2,3,4,5-tetrahydrobenzo[b][1,4]oxazepin-3-yl)-4-phenoxypicolinamide]	1.6 nM	36.8 nM				29.6 nM
C=C(C)C#Cc1ccc2c(c1)N(C)C(=O)[C@@H](NC(=O)c1cc(Oc3ccccc3)ccn1)CO2 [Compound I-99, (S)—N-(5-methyl-7-(3-methylbut-3-en-1-yn-1-yl)-4-oxo-2,3,4,5-tetrahydrobenzo[b][1,4]oxazepin-3-yl)-4-phenoxypicolinamide]	1.3 nM	116 nM				126 nM
CN1C(=O)[C@@H](NC(=O)c2cc(Oc3ccc(F)cc3)ccn2)COc2ccc(C#CC(C)(C)O)cc21 [Compound I-100, (S)-4-(4-fluorophenoxy)-N-(7-(3-hydroxy-3-methylbut-1-yn-1-yl)-5-methyl-4-oxo-2,3,4,5-tetrahydrobenzo[b][1,4]oxazepin-3-yl)picolinamide]	8.3 nM	263 nM	39.2 nM			
CN1C(=O)[C@@H](NC(=O)c2cc(Oc3ccc(F)cc3)ccn2)COc2ccc(C#CC(C)(C)C)cc21 [Compound I-101, (S)—N-(7-(3,3-dimethylbut-1-yn-1-yl)-5-methyl-4-oxo-2,3,4,5-tetrahydrobenzo[b][1,4]oxazepin-3-yl)-4-(4-fluorophenoxy)picolinamide]	36.3 nM	668 nM	133 nM			
